We go through one compound from patent US20240381872A1, “SUBSTITUTED 2,3-DIHYDRO[1,3]THIAZOLO[4,5-B]PYRIDINES, SALTS THEREOF AND THEIR USE AS HERBICIDALLY ACTIVE SUBSTANCES” (BAYER AKTIENGESELLSCHAFT, priority 2021, published 2024).

Assay type in all cases: in vivo
In data set [1] the test system is Alopecurus myosuroides (ALOMY). Briefly: Herbicidal post-emergence action, section B (Table B2). As to conditions: application rate 1280 g/ha; rated visually about 3 weeks after treatment vs untreated controls; 100% = plants have died, 0% = like control plants. As to the method:
Seeds of mono- and dicotyledonous weed plants were placed in plastic pots in sandy loam soil (doubly sown with in each case one species of mono- or dicotyledonous weed plants per pot), covered with soil and cultivated in a greenhouse under controlled growth conditions. 2 to 3 weeks after sowing, the test plants were treated at the one-leaf stage. The compounds of the invention, formulated in the form of wettable powders (WP) or as emulsion concentrates (EC), were applied onto the green parts of the plants as aqueous suspension or emulsion with addition of 0.5% additive at a water application rate of 600 liters per hectare (converted). After the test plants had been kept in the greenhouse under optimum growth conditions for about 3 weeks, the activity of the preparations was rated visually in comparison to untreated controls. For example, 100% activity=the plants have died, 0% activity=like control plants.

Data set [2] deals with Kochia scoparia (KCHSC). Briefly: Herbicidal post-emergence action, section B (Table B4). The note with it: application rate 320 g/ha; visual rating about 3 weeks after treatment vs untreated controls. Summed up:
(§1)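 Percent effect, judged by eye against untreated controls (0% = like control, 100% = plants dead), was recorded about 3 weeks after a foliar spray. The spray, at 600 liters per hectare with 0.5% additive, was applied to one-leaf-stage plants grown in sandy loam.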

Data set [3] concerns Matricaria inodora (MATIN). Briefly: Herbicidal post-emergence action, section B (Table B6). As to conditions: application rate 1280 g/ha; visual rating about 3 weeks after treatment vs untreated controls. The gist of the method:
as §1

The subject of data set [4] is Abutilon theophrasti (ABUTH). Briefly: Herbicidal pre-emergence action, section C (Table C1). As to conditions: application rate 320 g/ha; visual grading after ca. 3 weeks vs untreated controls. An excerpt:
(§2) Seeds of mono- and dicotyledonous weed plants and crop plants were sown, in plastic or organic planting pots, in sandy loam and covered with soil. The compounds according to the invention, formulated in the form of wettable powders (WP) or as emulsifiable concentrates (EC), were applied to the surface of the covering soil as aqueous suspension or emulsion, with the addition of 0.5% of an additive, at an application rate of 600 l of water/ha (converted). Following treatment, the pots were placed in a greenhouse and kept under optimum growth conditions for the test plants. The visual grading of the damage to the test plants was carried out after ca. 3 weeks in comparison to untreated controls (herbicidal effect in percent (%): 100% effect=plants have died off, 0% effect=as control plants).

Data set [5] concerns Viola tricolor (VIOTR). Put plainly: Herbicidal pre-emergence action, section C (Table C9). The note with it: application rate 320 g/ha; visual grading after ca. 3 weeks.
Source text: as §2

In data set [6] the test system is Triticum aestivum (TRZAS). Put plainly: Pre-emergence effects on crop plants, section D (Table D2). As to conditions: application rate 80 g/ha; visual grading after ca. 3 weeks. The gist of the method: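 Read-out: visual percent injury versus untreated controls at ca. 3 weeks (0% as control, 100% dead). Treatment: aqueous WP/EC suspension or emulsion with 0.5% additive, 600 l/ha, on soil covering seeds in sandy loam, at 320 g/ha or below, under optimum greenhouse conditions.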

In data set [7] the test system is Abutilon theophrasti (ABUTH). Briefly: Herbicidal post-emergence action, section E (Table E1). The note with it: application rate 80 g/ha; assessed visually after ca. 3 weeks. An excerpt: (§3) Seeds of mono- and dicotyledonous weed plants and crop plants were sown, in plastic or organic planting pots, in sandy loam, covered with soil and grown in a greenhouse under controlled growth conditions. 2 to 3 weeks after sowing, the test plants were sprayed in the single-leaf stage. The compounds according to the invention, formulated in form of wettable powders (WP) or as emulsifiable concentrates (EC), were sprayed onto the green plant parts as aqueous suspension or emulsion, with the addition of 0.5% of an additive, at an application rate of 600 l of water/ha (converted). The test plants were placed in the greenhouse for ca. 3 weeks under optimum growth conditions, and then the effect of the preparations was assessed visually in comparison with untreated controls (herbicidal effect in percent (%): 100% effect=plants have died off, 0% effect=as control plants).

Data set [8] has as its system Setaria viridis (SETVI). Put plainly: Herbicidal post-emergence action, section E (Table E8). The note with it: application rate 320 g/ha, visual assessment ca. 3 weeks after spraying.
Source text: as §3

The test system of data set [9] is Kochia scoparia (KCHSC). Briefly: Herbicidal post-emergence action, section E (Table E11). As to conditions: application rate 320 g/ha, visual assessment ca. 3 weeks after spraying. Summed up:
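Visual % herbicidal effect vs untreated controls (100% = plants died off, 0% = as controls), scored ca. 3 wk after post-emergence spray. Greenhouse plants in sandy loam, single-leaf stage; WP/EC in aqueous spray, 0.5% additive, 600 l water/ha.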

Data set [10] relates to Zea mays (ZEAMX). Put plainly: Post-emergence effects on crop plants, section F (Table F1). As to conditions: crop plant damage, application rate 80 g/ha. The gist of the method: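 Visual % damage versus untreated controls (100% = plants died, 0% = as control), assessed ca. 3 weeks after post-emergence spraying. Greenhouse plants in sandy loam were treated at the single-leaf stage with WP/EC formulations, 0.5% additive, 600 l water/ha, at 320 g/ha or below.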

Take `Cc1cc2c(nc1-c1ccccc1F)N(C(=O)C13CCCC1C(Cl)=NO3)CS2` (stereo not shown) [Example I-104]: in [1], the “post-emergence activity against ALOMY” value is recorded as 90%. The “post-emergence activity against KCHSC in %” value in [2] and in data set [9] was 90% in each case. In addition, in [3], the “post-emergence activity against MATIN in %” value is 90%. The “pre-emergence activity against ABUTH in %” value in [4] turned out to be 80%. Also, the “pre-emergence activity against VIOTR in %” value in data set [5] turned out to be 80%. In addition, in data set [6], the “pre-emergence activity against TRZAS in % (crop plant damage)” value came to 0%. Moreover, the “post-emergence activity against ABUTH in %” value in [7] came to 80%. The “post-emergence activity against SETVI in %” value in [8] came out at 90%. The “post-emergence activity against ZEAMX in %” value in data set [10] is on record as 20%.
